Experimental data as given in patent EP0236542B1, “Novel organic phosphinic acid compounds” (CYANAMID CANADA INC., priority 1980, dated 1982).
Read-outs that look alike come from different tables or passages of the source.

Test: pKa determination in 75% isopropanol
Type: physicochemical
Conditions: product as isolated (assay about 85-88% phosphinic acid)

pKa (read-out: pKa)	pKa	Structure (SMILES)
6.04	–	CC(CC(C)(C)C)CP(=O)(O)C1CCCCC1 (centres unmarked) [2,4,4 -trimethylpentyl, cyclohexylphosphinic acid]
–	6.03 ± 0.05	CC(CC(C)(C)C)CP(=O)(O)CC(C)CC(C)(C)C (centres unmarked) [di-2,4,4 -trimethylpentylphosphinic acid]
